The results in this text go back to US5843889A, “Glycopeptide antibiotic derivatives” (Eli Lilly and Company, priority 1997, dated 1998).

Usually MIC stands for the least concentration at which growth counts as inhibited.

Common to all, as to test: MIC, standard broth micro-dilution assay
What all share (type): cell-based
On the technique in general: Dilution methods test growth across graded concentrations, often in twofold steps.

Experiment [1] concerns Entercoccus gallinarum 245. The protocol:
(§1) The formula I compounds have in vitro and in vivo activity against Gram-positive pathogenic bacteria. The MIC's were determined using a standard broth micro-dilution assay.

Experiment [2] relates to Entercoccus faecalis 2041. The protocol:
as §1

The next experiment deals with Entercoccus faecalis 276. The method, then: as §1

In brackets after ≈: the same amount, converted by molar mass.

With `CNC(CC(C)C)C(=O)NC1C(=O)NC(CC(N)=O)C(=O)NC2C(=O)NC3C(=O)NC(C(=O)NC(C(=O)O)c4cc(O)cc(O)c4-c4cc3ccc4O)C(OC3CC(C)(N)C(O)C(C)O3)c3ccc(c(Cl)c3)Oc3cc2cc(c3OC2OC(CO)C(O)C(O)C2OC2CC(C)(NCC3CCC(C4CCCCC4)CC3)C(O)C(C)O2)Oc2ccc(cc2Cl)C1O` (stereo not drawn) [Compound 164, 4-[cyclohexyl]cyclohexylmethyl], the MIC in experiment [1] amounted to 2 µg/mL (≈ 1.13 µM); in experiment [2], 1 µg/mL (≈ 0.565 µM); with Entercoccus faecalis 276, 1 µg/mL (≈ 0.565 µM).

Regarding `CNC(CC(C)C)C(=O)NC1C(=O)NC(CC(N)=O)C(=O)NC2C(=O)NC3C(=O)NC(C(=O)NC(C(=O)O)c4cc(O)cc(O)c4-c4cc3ccc4O)C(OC3CC(C)(N)C(O)C(C)O3)c3ccc(c(Cl)c3)Oc3cc2cc(c3OC2OC(CO)C(O)C(O)C2OC2CC(C)(NCc3ccc(-c4ccccc4)s3)C(O)C(C)O2)Oc2ccc(cc2Cl)C1O` (stereo not drawn) [Compound 67, 5-phenyl-2-thienylmethyl], the results for the MIC (in experiment [1]; in experiment [2]; in the experiment with Entercoccus faecalis 276) were 2 µg/mL (≈ 1.13 µM), not above 0.06 µg/mL and not above 0.06 µg/mL, respectively.

For the compound `CNC(CC(C)C)C(=O)NC1C(=O)NC(CC(N)=O)C(=O)NC2C(=O)NC3C(=O)NC(C(=O)NC(C(=O)O)c4cc(O)cc(O)c4-c4cc3ccc4O)C(OC3CC(C)(N)C(O)C(C)O3)c3ccc(c(Cl)c3)Oc3cc2cc(c3OC2OC(CO)C(O)C(O)C2OC2CC(C)(NCc3ccc(OCc4ccccc4)c(OCc4ccccc4)c3)C(O)C(C)O2)Oc2ccc(cc2Cl)C1O` (stereo not drawn) [Compound 53], the MIC was determined as 2 µg/mL (≈ 1.06 µM) in experiment [1], 1 µg/mL (≈ 0.528 µM) in experiment [2] and 8 µg/mL (≈ 4.22 µM) with Entercoccus faecalis 276.

As for `CNC(CC(C)C)C(=O)NC1C(=O)NC(CC(N)=O)C(=O)NC2C(=O)NC3C(=O)NC(C(=O)NC(C(=O)O)c4cc(O)cc(O)c4-c4cc3ccc4O)C(OC3CC(C)(N)C(O)C(C)O3)c3ccc(c(Cl)c3)Oc3cc2cc(c3OC2OC(CO)C(O)C(O)C2OC2CC(C)(NCc3ccc(N=Nc4ccccc4)cc3)C(O)C(C)O2)Oc2ccc(cc2Cl)C1O` (stereo not drawn) [Compound 210, 4-[phenylazo]benzyl], the MIC in experiment [1] is 1 µg/mL (≈ 0.56 µM); in experiment [2] it was not above 0.06 µg/mL; against Entercoccus faecalis 276, not above 0.06 µg/mL.

Take `CNC(CC(C)C)C(=O)NC1C(=O)NC(CC(N)=O)C(=O)NC2C(=O)NC3C(=O)NC(C(=O)NC(C(=O)O)c4cc(O)cc(O)c4-c4cc3ccc4O)C(OC3CC(C)(N)C(O)C(C)O3)c3ccc(c(Cl)c3)Oc3cc2cc(c3OC2OC(CO)C(O)C(O)C2OC2CC(C)(NCc3ccc(-c4ccc([N+](=O)[O-])cc4)c([N+](=O)[O-])c3)C(O)C(C)O2)Oc2ccc(cc2Cl)C1O` (stereo not drawn) [Compound 212, 3-nitro-4-[4-nitrophenyl]benzyl]: the MIC in experiment [1] is 1 µg/mL (≈ 0.541 µM); in experiment [2], not above 0.06 µg/mL; in the experiment with Entercoccus faecalis 276, not above 0.06 µg/mL.

Regarding `CNC(CC(C)C)C(=O)NC1C(=O)NC(CC(N)=O)C(=O)NC2C(=O)NC3C(=O)NC(C(=O)NC(C(=O)O)c4cc(O)cc(O)c4-c4cc3ccc4O)C(OC3CC(C)(N)C(O)C(C)O3)c3ccc(c(Cl)c3)Oc3cc2cc(c3OC2OC(CO)C(O)C(O)C2OC2CC(C)(NCc3ccc(-c4ccc(F)cc4)cc3)C(O)C(C)O2)Oc2ccc(cc2Cl)C1O` (stereo not drawn) [Compound 211, 4-[4-flurophenyl]benzyl], the MIC (in experiment [1]; in experiment [2]; against Entercoccus faecalis 276) was not above 0.06 µg/mL throughout.

With `CNC(CC(C)C)C(=O)NC1C(=O)NC(CC(N)=O)C(=O)NC2C(=O)NC3C(=O)NC(C(=O)NC(C(=O)O)c4cc(O)cc(O)c4-c4cc3ccc4O)C(OC3CC(C)(N)C(O)C(C)O3)c3ccc(c(Cl)c3)Oc3cc2cc(c3OC2OC(CO)C(O)C(O)C2OC2CC(C)(NCc3ccc(-c4ccccn4)cc3)C(O)C(C)O2)Oc2ccc(cc2Cl)C1O` (stereo not drawn) [Compound 137, 4-[2-pyridyl]benzyl], the MIC in experiment [1] was 8 µg/mL (≈ 4.55 µM); in experiment [2], not above 0.06 µg/mL; with Entercoccus faecalis 276 it was not above 0.06 µg/mL.

Take `CNC(CC(C)C)C(=O)NC1C(=O)NC(CC(N)=O)C(=O)NC2C(=O)NC3C(=O)NC(C(=O)NC(C(=O)O)c4cc(O)cc(O)c4-c4cc3ccc4O)C(OC3CC(C)(N)C(O)C(C)O3)c3ccc(c(Cl)c3)Oc3cc2cc(c3OC2OC(CO)C(O)C(O)C2OC2CC(C)(NCc3ccc(-c4ccccc4)cc3)C(O)C(C)O2)Oc2ccc(cc2)C1O` (stereo not drawn) [Compound 185, 4-phenylbenzyl]: the MIC entry (in experiment [1]; in experiment [2]; against Entercoccus faecalis 276) was “≤ .06 µg/mL” in each case.

Take `CNC(CC(C)C)C(=O)NC1C(=O)NC(CC(N)=O)C(=O)NC2C(=O)NC3C(=O)NC(C(=O)NC(C(=O)O)c4cc(O)cc(O)c4-c4cc3ccc4O)C(OC3CC(C)(N)C(O)C(C)O3)c3ccc(c(Cl)c3)Oc3cc2cc(c3OC2OC(CO)C(O)C(O)C2OC2CC(C)(NCc3cccnc3)C(O)C(C)O2)Oc2ccc(cc2Cl)C1O` (stereo not drawn) [Compound 24, 3-pyridylmethyl]: the MIC is 0.25 µg/mL (≈ 0.148 µM) in experiment [1], not above 0.06 µg/mL in experiment [2] and 0.25 µg/mL (≈ 0.148 µM) with Entercoccus faecalis 276.

For “4-[3-trifluoromethylphenoxy]-3-nitrobenzyl [Compound 114]”, the MIC is 2 µg/mL in experiment [1], 0.25 µg/mL in experiment [2] and 1 µg/mL in the experiment with Entercoccus faecalis 276.

Take `CNC(CC(C)C)C(=O)NC1C(=O)NC(CC(N)=O)C(=O)NC2C(=O)NC3C(=O)NC(C(=O)NC(C(=O)O)c4cc(O)cc(O)c4-c4cc3ccc4O)C(OC3CC(C)(N)C(O)C(C)O3)c3ccc(c(Cl)c3)Oc3cc2cc(c3OC2OC(CO)C(O)C(O)C2OC2CC(C)(NCc3c4ccccc4c(C)c4ccccc34)C(O)C(C)O2)Oc2ccc(cc2Cl)C1O` (stereo not drawn) [Compound 17, 9-[10-methyl]anthranylmethyl]: the MIC in experiment [1] amounted to 0.5 µg/mL (≈ 0.278 µM); in experiment [2], 0.25 µg/mL (≈ 0.139 µM); in the experiment on Entercoccus faecalis 276, 0.5 µg/mL (≈ 0.278 µM).

With `CNC(CC(C)C)C(=O)NC1C(=O)NC(CC(N)=O)C(=O)NC2C(=O)NC3C(=O)NC(C(=O)NC(C(=O)O)c4cc(O)cc(O)c4-c4cc3ccc4O)C(OC3CC(C)(N)C(O)C(C)O3)c3ccc(c(Cl)c3)Oc3cc2cc(c3OC2OC(CO)C(O)C(O)C2OC2CC(C)(NCc3cc4ccccc4c4ccccc34)C(O)C(C)O2)Oc2ccc(cc2Cl)C1O` (stereo not drawn) [Compound 11, 9-phenanthranylmethyl], the MIC was not above 0.06 µg/mL in experiment [1], 0.5 µg/mL (≈ 0.28 µM) in experiment [2] and 1 µg/mL (≈ 0.561 µM) with Entercoccus faecalis 276.

As for `CNC(CC(C)C)C(=O)NC1C(=O)NC(CC(N)=O)C(=O)NC2C(=O)NC3C(=O)NC(C(=O)NC(C(=O)O)c4cc(O)cc(O)c4-c4cc3ccc4O)C(OC3CC(C)(N)C(O)C(C)O3)c3ccc(c(Cl)c3)Oc3cc2cc(c3OC2OC(CO)C(O)C(O)C2OC2CC(C)(NCc3ccc(OC)c(OCC4CCCCC4)c3)C(O)C(C)O2)Oc2ccc(cc2Cl)C1O` (stereo not drawn) [Compound 142, 3-[cyclohexylmethoxy]-4-methoxybenzyl], the figures for the MIC (in experiment [1]; in experiment [2]; in the experiment with Entercoccus faecalis 276) were 1 µg/mL (≈ 0.548 µM), not above 0.06 µg/mL and 1 µg/mL (≈ 0.548 µM), respectively.

In the case of `CNC(CC(C)C)C(=O)NC1C(=O)NC(CC(N)=O)C(=O)NC2C(=O)NC3C(=O)NC(C(=O)NC(C(=O)O)c4cc(O)cc(O)c4-c4cc3ccc4O)C(OC3CC(C)(N)C(O)C(C)O3)c3ccc(c(Cl)c3)Oc3cc2cc(c3OC2OC(CO)C(O)C(O)C2OC2CC(C)(NCc3cc(C)cc(C)c3)C(O)C(C)O2)Oc2ccc(cc2Cl)C1O` (stereo not drawn) [Compound 89, 3,5-dimethylbenzyl], the MIC (in experiment [1]; in experiment [2]; in the experiment with Entercoccus faecalis 276) was not above 0.06 µg/mL in each case.
